In the first assay the test system is PDE4. Kind of assay: Evaluation of PDE4 inhibitory activity, scintillation proximity assay. The format is biochemical. Conditions: scintillation proximity assay; class symbols of Evaluation 1; read-out: PDE4 Inhibitory Activity (concentration for the inhibition rate of 50%, IC50), Evaluation 1. In short, it runs like this: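 SPA with [2,8-3H]-cAMP and diluted PDE4 enzyme preparation in 50 mM Tris-HCl pH 7.4, 8.3 mM MgCl2, 1.7 mM EGTA, 3 mg/mL BSA, 120 min at room temperature. Product captured on ZnSO4-containing YSi-SPA beads, scintillation counted; IC50 from inhibition curves vs DMSO control and no-enzyme blank.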
Background: SPA uses beads or plates that emit light when radiolabelled molecules are held near them.
As for `OCc1ccc(-c2nccs2)c2oc(N3CC4CCCC(C3)N4)nc12` [Example 134, (2-(3,9-Diazabicyclo[3.3.1]nonan-3-yl)-7-(thiazol-2-yl)benzo[d]oxazol-4-yl)methanol], the IC50 was < 100 nM.

As to `OCc1cc(-c2nccs2)c2oc(N3CC4CCC(C3)N4)nc2c1C(F)(F)F` [Example 170, (2-(3,8-Diazabicyclo[3.2.1]octan-3-yl)-7-(thiazol-2-yl)-4-(trifluoromethyl)benzo[d]oxazol-5-yl)methanol], the IC50 was < 100 nM.

Take `CS(=O)(=O)c1cc(-c2nccs2)c2oc(N3CC4CCCC(C3)N4)nc2c1` [Example 47, 2-(3,9-Diazabicyclo[3.3.1]nonan-3-yl)-5-(methylsulfonyl)-7-(thiazol-2-yl)benzo[d]oxazole]: the IC50 is < 100 nM.

With `CC(C)(O)c1cc(-c2nccs2)c2oc(N3CC4CC(C3)N4)nc2c1C(F)(F)F` [Example 178, 2-(2-(3,6-Diazabicyclo[3.1.1]heptan-3-yl)-7-(thiazol-2-yl)-4-(trifluoromethyl)benzo[d]oxazol-5-yl)propan-2-ol], the IC50 is < 100 nM.

As for `CCOC(=O)c1cc(-n2cccn2)c2oc(N3CC4CC(C3)N4)nc2c1` [Example 91, Ethyl 2-(3,6-diazabicyclo[3.1.1]heptan-3-yl)-7-(1H-pyrazol-1-yl)benzo[d]oxazole-5-carboxylate], the IC50 was > 1000 nM.

With `OC(O)(c1cc(-c2nccs2)c2oc(N3CC4CCCC(C3)N4)nc2c1)C(F)(F)F` [Example 156, 1-(2-(3,9-Diazabicyclo[3.3.1]nonan-3-yl)-7-(thiazol-2-yl)benzo[d]oxazol-5-yl)-2,2,2-trifluoroethane-1,1-diol], the IC50 was < 100 nM.

On to `FC(F)(F)c1c(Cl)cc(-c2ccccn2)c2oc(N3CC4CCC(C3)N4)nc12` [Example 11, 2-(3,8-Diazabicyclo[3.2.1]octan-3-yl)-5-chloro-7-(pyridin-2-yl)-4-(trifluoromethyl)benzo[d]oxazole], for which the IC50 is < 100 nM.

As for `FC(F)(F)Oc1c(Cl)cc(-c2nccs2)c2oc(N3CC4CCC(C3)N4)nc12` [Example 1, 2-(3,8-Diazabicyclo[3.2.1]octan-3-yl)-5-chloro-7-(thiazol-2-yl)-4-(trifluoromethoxy)benzo[d]oxazole], the IC50 is < 100 nM.

Turning to `CC(O)(c1ccc(-c2nccs2)c2oc(N3CC4CCC(C3)N4)nc12)C(F)F` (stereo not drawn) [Example 129, 2-(2-(3,8-Diazabicyclo[3.2.1]octan-3-yl)-7-(thiazol-2-yl)benzo[d]oxazol-4-yl)-1,1-difluoropropan-2-ol], the IC50 is < 100 nM.

On to `c1csc(-c2cc(CN3CCOCC3)cc3nc(N4CC5CCC(C4)N5)oc23)n1` [Example 168, 2-(3,8-Diazabicyclo[3.2.1]octan-3-yl)-5-(morpholinomethyl)-7-(thiazol-2-yl)benzo[d]oxazole], for which the IC50 is < 100 nM.

With `CCOC(=O)c1ccc(-c2nccs2)c2oc(N3CC4CC(C3)N4)nc12` [Example 113, ethyl 2-(3,6-diazabicyclo[3.1.1]heptan-3-yl)-7-(thiazol-2-yl)benzo[d]oxazole-4-carboxylate], the IC50 is < 100 nM.

As for `CN(C)C(=O)c1ccc(-c2nccs2)c2oc(N3CC4CCC(C3)N4)nc12` [Example 115, 2-(3,8-Diazabicyclo[3.2.1]octan-3-yl)-N,N-dimethyl-7-(thiazol-2-yl)benzo[d]oxazole-4-carboxamide], the IC50 is < 100 nM.

Regarding `CCOC(=O)c1cc(-c2nccs2)c2oc(N3CC4CCCC(C3)N4)nc2c1C(F)(F)F` [Example 164, Ethyl 2-(3,9-diazabicyclo[3.3.1]nonan-3-yl)-7-(thiazol-2-yl)-4-(trifluoromethyl)benzo[d]oxazole-5-carboxylate], the IC50 was < 100 nM.

On to `COC(C)(C)c1cc(-c2nccs2)c2oc(N3CC4CCC(C3)N4)nc2c1C(F)(F)F` [Example 171, 2-(3,8-Diazabicyclo[3.2.1]octan-3-yl)-5-(2-methoxypropan-2-yl)-7-(thiazol-2-yl)-4-(trifluoromethyl)benzo[d]oxazole], for which the IC50 was < 100 nM.

Turning to `COCCOC(c1cc(-c2nccs2)c2oc(N3CC4CC(C3)N4)nc2c1)C(F)(F)F` (stereo not drawn) [Example 154, 2-(3,6-Diazabicyclo[3.1.1]heptan-3-yl)-7-(thiazol-2-yl)-5-(2,2,2-trifluoro-1-(2-methoxyethoxy)ethyl)benzo[d]oxazole], the IC50 is < 100 nM.

Regarding `COC(c1cc(-c2nccs2)c2oc(N3CC4CC(C3)N4)nc2c1)C(F)(F)F` (stereo not drawn) [Example 144, 2-(3,6-Diazabicyclo[3.1.1]heptan-3-yl)-7-(thiazol-2-yl)-5-(2,2,2-trifluoro-1-methoxyethyl)benzo[d]oxazole], the IC50 was < 100 nM.

Consider `CCOC(c1cc(-c2nccs2)c2oc(N3CC4CC(C3)N4)nc2c1)C(F)(F)F` (stereo not drawn) [Example 150, 2-(3,6-Diazabicyclo[3.1.1]heptan-3-yl)-5-(1-ethoxy-2,2,2-trifluoroethyl)-7-(thiazol-2-yl)benzo[d]oxazole], for which the IC50 is < 100 nM.

Regarding `O=C(NCc1ccccc1)c1cc(-c2nccs2)c2oc(N3CC4CCC(C3)N4)nc2c1` [Example 98, N-benzyl-2-(3,8-diazabicyclo[3.2.1]octan-3-yl)-7-(thiazol-2-yl)benzo[d]oxazole-5-carboxamide], the IC50 is < 100 nM.

Turning to `FC(F)(F)c1cc(-c2nccs2)c2oc(N3CC4CC(C3)N4)nc2c1` [Example 52, 2-(3,6-Diazabicyclo[3.1.1]heptan-3-yl)-7-(thiazol-2-yl)-5-(trifluoromethyl)benzo[d]oxazole], the IC50 is < 100 nM.

`FC(F)(F)COc1cc(-c2nccs2)c2oc(N3CC4CC(C3)N4)nc2c1` [Example 67, 2-(3,6-Diazabicyclo[3.1.1]heptan-3-yl)-7-(thiazol-2-yl)-5-(2,2,2-trifluoroethoxy)benzo[d]oxazole]: the IC50 is < 100 nM.

For `Oc1cc(-c2nccs2)c2oc(N3CC4CC(C3)N4)nc2c1` [Example 64, 2-(3,6-Diazabicyclo[3.1.1]heptan-3-yl)-7-(thiazol-2-yl)benzo[d]oxazol-5-ol], the IC50 is < 100 nM.

As for `COC(c1cc(-c2nccs2)c2oc(N3CC4CCC(C3)N4)nc2c1)C(F)F` (stereo not drawn) [Example 105, 2-(3,8-Diazabicyclo[3.2.1]octan-3-yl)-5-(2,2-difluoro-1-methoxyethyl)-7-(thiazol-2-yl)benzo[d]oxazole], the IC50 is < 100 nM.

The same assay, now with this note: scintillation proximity assay; read-out: PDE4 Inhibitory Activity (Evaluation 1; concentration for the inhibition rate of 50%).
With `CC(O)C(F)(F)Oc1ccc(-c2cscn2)c2oc(N3CC4CCC(C3)N4)nc12` (stereo not drawn) [Example 310, 1-((2-(3,8-Diazabicyclo[3.2.1]octan-3-yl)-7-(thiazol-4-yl)benzo[d]oxazol-4-yl)oxy)-1,1-difluoropropan-2-ol], the IC50 was < 100 nM.

As for `CC(C)(O)COc1ccc(-c2nccs2)c2oc(N3CC4CCC(C3)N4)nc12` [Example 264, 1-((2-(3,8-Diazabicyclo[3.2.1]octan-3-yl)-7-(thiazol-2-yl)benzo[d]oxazol-4-yl)oxy)-2-methylpropan-2-ol], the IC50 was < 100 nM.

With `O=S1(=O)CCN(c2ccc(-c3nccs3)c3oc(N4CC5CC(C4)N5)nc23)CC1` [Example 398, 4-(2-(3,6-Diazabicyclo[3.1.1]heptan-3-yl)-7-(thiazol-2-yl)benzo[d]oxazol-4-yl)thiomorpholine 1,1-dioxide], the IC50 is < 100 nM.

As to `CC(O)C(F)(F)Oc1ccc(-c2nccs2)c2oc(N3CC4CC(C3)N4)nc12` (racemic) [Example 250, 1-((2-(3,6-Diazabicyclo[3.1.1]heptan-3-yl)-7-(thiazol-2-yl)benzo[d]oxazol-4-yl)oxy)-1,1-difluoropropan-2-ol], the IC50 is < 100 nM.

On to `CC(C)(O)c1cc(-c2cscn2)c2oc(N3CC4CCC(C3)N4)nc2c1OC(F)(F)F` [Example 291, 2-(2-(3,8-Diazabicyclo[3.2.1]octan-3-yl)-7-(thiazol-4-yl)-4-(trifluoromethoxy)benzo[d]oxazol-5-yl)propan-2-ol], for which the IC50 was < 100 nM.

With `CC(O)COC(c1ccc(-c2nccs2)c2oc(N3CC4CC(C3)N4)nc12)C(F)(F)F` (stereo not drawn) [Example 261, 1-(1-(2-(3,6-Diazabicyclo[3.1.1]heptan-3-yl)-7-(thiazol-2-yl)benzo[d]oxazol-4-yl)-2,2,2-trifluoroethoxy)propan-2-ol], the IC50 is < 100 nM.

On to `C=CC(F)(F)Oc1ccc(-c2nccs2)c2oc(N3CC4CC(C3)N4)nc12` [Example 351, 2-(3,6-Diazabicyclo[3.1.1]heptan-3-yl)-4-((1,1-difluoroallyl)oxy)-7-(thiazol-2-yl)benzo[d]oxazole], for which the IC50 was < 100 nM.

`CC(O)c1cc(-c2nccs2)c2oc(N3CC4CCC(C3)N4)nc2c1OC(F)(F)F` (stereo not drawn) [Example 202, 1-(2-(3,8-Diazabicyclo[3.2.1]octan-3-yl)-7-(thiazol-2-yl)-4-(trifluoromethoxy)benzo[d]oxazol-5-yl)ethan-1-ol]: the IC50 is < 100 nM.

On to `CC(O)c1cc(-c2nccs2)c2oc(N3CC4CC(C3)N4)nc2c1OC(F)(F)F` (stereo not drawn) [Example 272, 1-(2-(3,6-Diazabicyclo[3.1.1]heptan-3-yl)-7-(thiazol-2-yl)-4-(trifluoromethoxy)benzo[d]oxazol-5-yl)ethan-1-ol], for which the IC50 is < 100 nM.

For `OC1(c2cc(-c3nccs3)c3oc(N4CC5CCC(C4)N5)nc3c2OC(F)(F)F)CC1` [Example 274, 1-(2-(3,8-Diazabicyclo[3.2.1]octan-3-yl)-7-(thiazol-2-yl)-4-(trifluoromethoxy)benzo[d]oxazol-5-yl)cyclopropan-1-ol], the IC50 was < 100 nM.

Consider `OC(c1cc(-c2nccs2)c2oc(N3CC4CCC(C3)N4)nc2c1OC(F)(F)F)C(F)F` (stereo not drawn) [Example 206, 1-(2-(3,8-Diazabicyclo[3.2.1]octan-3-yl)-7-(thiazol-2-yl)-4-(trifluoromethoxy)benzo[d]oxazol-5-yl)-2,2-difluoroethan-1-ol], for which the IC50 is < 100 nM.

The values above are taken from patent US12239643B2, “Therapeutic agent for inflammatory diseases, autoimmune diseases, fibrotic diseases, and cancer diseases” (MEIJI SEIKA PHARMA CO., LTD., priority 2018, dated 2025).
